Patent US9227919B2, “Arylalkylamine compounds as calcium sensing receptor modulators” (Lupin Limited, priority 2012, dated 2016)
Structures can show the parent of a compound that is named as a salt.

Target: T1, Calcium Sensing Receptor (CaSR) (Homo sapiens, UniProt P41180)
T1 construct: expressed in transfected cells
T1 sequence (P41180 20-1078): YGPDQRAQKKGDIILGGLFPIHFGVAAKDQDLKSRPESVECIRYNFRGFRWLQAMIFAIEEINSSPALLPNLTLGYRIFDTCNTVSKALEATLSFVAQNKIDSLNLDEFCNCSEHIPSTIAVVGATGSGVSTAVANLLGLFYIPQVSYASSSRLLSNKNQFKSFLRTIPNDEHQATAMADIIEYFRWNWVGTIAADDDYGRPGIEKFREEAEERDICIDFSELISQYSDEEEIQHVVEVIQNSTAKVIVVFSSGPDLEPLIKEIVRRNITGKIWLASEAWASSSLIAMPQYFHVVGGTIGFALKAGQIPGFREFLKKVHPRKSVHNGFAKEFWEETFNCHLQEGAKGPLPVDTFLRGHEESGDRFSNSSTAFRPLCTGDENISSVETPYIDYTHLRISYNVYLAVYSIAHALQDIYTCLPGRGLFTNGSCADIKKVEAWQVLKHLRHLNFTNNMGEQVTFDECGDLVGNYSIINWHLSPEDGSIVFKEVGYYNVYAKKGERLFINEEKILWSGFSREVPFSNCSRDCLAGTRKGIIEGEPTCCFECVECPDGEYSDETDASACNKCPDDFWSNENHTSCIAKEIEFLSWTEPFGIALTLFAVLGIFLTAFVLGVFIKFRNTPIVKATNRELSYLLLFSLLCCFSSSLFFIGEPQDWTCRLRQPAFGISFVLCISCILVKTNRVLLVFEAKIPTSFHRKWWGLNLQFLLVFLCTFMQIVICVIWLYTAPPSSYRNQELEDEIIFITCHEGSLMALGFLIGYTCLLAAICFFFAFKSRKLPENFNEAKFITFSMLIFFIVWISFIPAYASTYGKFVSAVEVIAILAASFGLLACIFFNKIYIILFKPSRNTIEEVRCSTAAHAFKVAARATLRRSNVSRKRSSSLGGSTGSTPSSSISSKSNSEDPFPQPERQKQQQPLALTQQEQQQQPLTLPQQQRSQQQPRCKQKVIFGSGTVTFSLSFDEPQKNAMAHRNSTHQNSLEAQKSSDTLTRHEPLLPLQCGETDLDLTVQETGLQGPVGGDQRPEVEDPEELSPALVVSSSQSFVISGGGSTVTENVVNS
Experiment: In-vitro assay of calcimimetics through modulation of Calcium Sensing Receptor (intracellular calcium increase, FLIPR)
Type: cell-based
Details: stably transfected HEK293 cells expressing hCaSR; Fluo4NW dye; 0.3 mM CaCl2; 8-point assay; read-out: EC50 Range
Protocol: Certain illustrative compounds within the scope of the invention are screened for CaSR activity according to the procedure given below. The screening of the compounds may also be carried by other methods and procedures known to skilled in the art.
In-vitro assay method of Calcimimetics through modulation of Calcium Sensing Receptor (CaSR):
The ability of the compounds to modulate Calcium sensing receptor is determined by measuring an increase in intracellular calcium [Ca^2+]i. Stably transfected HEK293 cells expressing hCaSR_pTriEx-3 hygro vector are developed. Cells are grown overnight on a 96-well plate to 80% confluency in Ham's F12 containing 20% FBS at 37° C., 5% CO2. Subsequently, cells are washed extensively with 20 mM HEPES buffer containing 126 mM […], 1 mM MgCl2 and 4 mM KCl to remove serum components that might interfere with the assay. Cells are loaded with calcium sensing Fluo4NW dye in HEPES base buffer containing 0.1% BSA and lmg/ml glucose for 30 minutes to measure changes in intracellular calcium. The activities of the compounds are measured in FLIPR using 0.3 mM CaCl2 in 20 mM HEPES base buffer. The effectiveness of the compound to modulate receptor activity is determined by calculating the EC50 responses for that compound in an 8-point assay and plotted using GraphPad Prism 5.
The compounds prepared were tested using the above assay procedure and the results obtained are given below.

EC50 | SMILES
20 to 50 nM | Cc1ccc(C2C[C@H](CCN[C@H](C)c3ccc(F)c4ccccc34)Cc3ccccc32)cc1C(=O)O (stereo partly drawn) [Example 25, 5-((3S)-3-(2-(((R)-1-(4-Fluoronaphthalen-1-yl)ethyl)amino)ethyl)-1,2,3,4-tetrahydronaphthalen-1-yl)-2-methylbenzoic acid hydrochloride]
< 20 nM | Cc1ccc(C2C[C@H](CCCN[C@H](C)c3ccc(F)c4ccccc34)Cc3ccccc32)cc1C(=O)O (stereo partly drawn) [Example 29, 5-((3S)-3-(3-(((R)-1-(4-fluoronaphthalen-1-yl)ethyl)amino)propyl)-1,2,3,4-tetrahydronaphthalen-1-yl)-2-methylbenzoic acid hydrochloride]
< 20 nM | Cc1ccc(C2C[C@@H](CCCN[C@H](C)c3cccc4ccccc34)Cc3ccccc32)cc1C(=O)O (stereo partly drawn) [Example 31, 2-Methyl-5-((3R)-3-(3-(((R)-1-(naphthalen-1-yl)ethyl)amino)propyl)-1,2,3,4-tetrahydronaphthalen-1-yl)benzoic acid hydrochloride]
< 20 nM | Cc1ccc(N2C[C@@H](CN[C@H](C)c3cccc4ccccc34)Cc3ccccc32)cc1C(=O)O [Example 69a, 2-Methyl-5-(3-((((R)-1-(naphthalen-1-yl)ethyl)amino)methyl)-3,4-dihydroquinolin-1(2H)-yl)benzoic acid hydrochloride]
